Data on 75 compounds can be found in PubChem BioAssay AID602404 (Sanford-Burnham Center for Chemical Genomics, 2012).

“And” between values parts separate entries of the source, which are not always exact repeats. Identical values can stand only once. The source made the active and inactive calls. The rule behind the calls is not given here.

Ubiquitin-conjugating enzyme E2 N (Homo sapiens), sequence (P61088 whole entry, looked up): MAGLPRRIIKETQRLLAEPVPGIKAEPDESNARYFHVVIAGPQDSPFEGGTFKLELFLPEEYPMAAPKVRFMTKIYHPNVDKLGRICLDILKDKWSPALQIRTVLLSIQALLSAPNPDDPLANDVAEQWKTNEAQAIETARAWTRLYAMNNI

The experiment addresses Ubiquitin-conjugating enzyme E2 N (Homo sapiens) (UniProt P61088). Description: UBC13 polyubiquitination inhibitors, SAR follow-up, biochemical, TR-FRET, set 4 (AID 602404). In general terms: Time-resolved FRET reads energy transfer from a long-lived donor to a nearby acceptor.
The IC50 is the point on the concentration scale where inhibition reaches its midpoint. `O=C(NCC1CCN(Cc2cccc(Cl)c2)CC1)C1CCCN(c2ncnc3c2nc2n3CCCCC2)C1` (stereo not given): the IC50 is 0.813 µM and 1.13 µM.

Take `O=C(Nc1ccc(F)c(Cl)c1)C1CCN(c2ncnc3c2nc2n3CCCCC2)CC1`: the IC50 is 5.67 µM.

With `Cc1cc(C)cc(NC(=O)C2CCCN(c3ncnc4c3nc3n4CCCCC3)C2)c1` (stereo not given), the IC50 entry was “inactive”.

Take `Cc1ccc(NC(=O)C2CCCN(c3ncnc4c3nc3n4CCCC3)C2)cc1Br` (stereo not given): the IC50 result was “inactive”.

In the case of `O=C(c1ccco1)N1CCN(C(=O)C2CCN(c3ncnc4c3nc3n4CCCCC3)CC2)CC1`, the IC50 result was “inactive”.

As for `O=C(C1CCN(c2ncnc3c2nc2n3CCCCC2)CC1)N1CCN(c2ccc(F)cc2)CC1`, the IC50 entry was “inactive”.

With `Cc1ccc(NC(=O)C2CCN(c3ncnc4c3nc3n4CCCC3)CC2)cc1C`, the IC50 result was “inactive”.

For the compound `O=C(NCc1ccc(Cl)c(Cl)c1)C1CCN(c2ncnc3c2nc2n3CCCC2)CC1`, the IC50 was > 100 µM (inactive).

Take `COc1ccccc1N1CCN(CCCNC(=O)C2CCCN(c3ncnc4c3nc3n4CCCCC3)C2)CC1` (stereo not given): the IC50 result was “inactive”.

For `Cc1ccccc1CN1CCC(CNC(=O)C2CCCN(c3ncnc4c3nc3n4CCCCC3)C2)CC1` (stereo not given), the 50% inhibitory concentration (IC50) is 3.55 µM.

For the compound `O=C(NCCCN1CCN(c2ccc(F)cc2)CC1)C1CCCN(c2ncnc3c2nc2n3CCCCC2)C1` (stereo not given), the IC50 was 2.22 µM.

As for `Cc1cccc(NC(=O)C2CCN(c3ncnc4c3nc3n4CCCCC3)CC2)c1`, the IC50 result is “inactive”.

As to `O=C(C1CCN(c2ncnc3c2nc2n3CCCCC2)CC1)N1CCN(Cc2ccccc2)CC1`, the IC50 is 3.05 µM.

Turning to `CC1CC(C)CN(C(=O)C2CCN(c3ncnc4c3nc3n4CCCCC3)CC2)C1` (stereo not given), the IC50 entry was “inactive”.

Take `Cc1c(Cl)cccc1NC(=O)C1CCN(c2ncnc3c2nc2n3CCCCC2)CC1`: the concentration for half-maximal inhibition (IC50) was 11.8 µM.

For the compound `Cc1ccc(NC(=O)C2CCN(c3ncnc4c3nc3n4CCCCC3)CC2)cc1Br`, the IC50 was > 100 µM (inactive).

For `CN(CCNC(=O)C1CCN(c2ncnc3c2nc2n3CCCCC2)CC1)Cc1ccccc1`, the IC50 is 1.23 µM.

Regarding `O=C(NCC1CCN(Cc2ccc(Cl)c(Cl)c2)CC1)C1CCCN(c2ncnc3c2nc2n3CCCCC2)C1` (stereo not given), the IC50 was 4.03 µM.

Regarding `O=C(C1CCN(c2ncnc3c2nc2n3CCCCC2)CC1)N1CCOCC1`, the IC50 entry was “inactive”.

With `O=C(NCC1CCN(Cc2cccc(Cl)c2)CC1)[C@H]1CCCN(c2ncnc3c2nc2n3CCCCC2)C1`, the IC50 is 15 µM.

For `Cc1ccc(NC(=O)C2CCCN(c3ncnc4c3nc3n4CCCC3)C2)cc1C` (stereo not given), the IC50 entry was “inactive”.

`Cc1cc(Cl)ccc1NC(=O)C1CCN(c2ncnc3c2nc2n3CCCCC2)CC1`: the IC50 result was “inactive”.

For `O=C(NCc1ccc(Cl)c(Cl)c1)C1CCN(c2ncnc3c2nc2n3CCCCC2)CC1`, the IC50 was > 100 µM (inactive).

On to `O=C(NCC1CCN(Cc2ccccc2Cl)CC1)C1CCCN(c2ncnc3c2nc2n3CCCCC2)C1` (stereo not given), for which the half-inhibitory concentration (IC50) was 2.28 µM.

As for `O=C(NCC1CCN(Cc2cccc(Cl)c2)CC1)[C@@H]1CCCN(c2ncnc3c2nc2n3CCCC2)C1`, the IC50 is 0.781 µM.

Consider `O=C(NCC1CCN(Cc2cccc(Cl)c2)CC1)[C@@H]1CCCN(c2ncnc3c2nc2n3CCCCC2)C1`, for which the IC50 is 3.37 µM.

For `Cc1cccc(NC(=O)C2CCN(c3ncnc4c3nc3n4CCCC3)CC2)c1`, the IC50 result was “inactive”.

In the case of `O=C(Nc1cc(F)ccc1F)C1CCN(c2ncnc3c2nc2n3CCCCC2)CC1`, the IC50 result was “inactive”.

As for `O=C(NCc1cccc(Cl)c1)C1CCN(c2ncnc3c2nc2n3CCCCC2)CC1`, the IC50 result is “inactive”.

As to `O=C(NCc1ccc(Cl)c(Cl)c1)C1CCCN(c2ncnc3c2nc2n3CCCCC2)C1` (stereo not given), the IC50 is > 100 µM (inactive).

As to `Cc1ccc(NC(=O)C2CCCN(c3ncnc4c3nc3n4CCCCC3)C2)cc1F` (stereo not given), the IC50 result is “inactive”.

As for `Cc1ccc(NC(=O)C2CCN(c3ncnc4c3nc3n4CCCCC3)CC2)c(Cl)c1`, the IC50 is > 100 µM (inactive).

As to `Cc1ccc(NC(=O)C2CCCN(c3ncnc4c3nc3n4CCCCC3)C2)cc1Br` (stereo not given), the IC50 was > 100 µM (inactive).

`Cc1cc(C)cc(NC(=O)C2CCN(c3ncnc4c3nc3n4CCCC3)CC2)c1`: the IC50 result is “inactive”.

In the case of `O=C(NCc1ccc(Cl)c(Cl)c1)C1CCCN(c2ncnc3c2nc2n3CCCC2)C1` (stereo not given), the IC50 entry was “inactive”.

For `O=C(C1CCN(c2ncnc3c2nc2n3CCCCC2)CC1)N1CCC(Cc2ccccc2)CC1`, the IC50 is 14 µM.

`O=C(NCc1cccc(Cl)c1)C1CCN(c2ncnc3c2nc2n3CCCC2)CC1`: the IC50 was 12.6 µM.

Take `O=C(C1CCN(c2ncnc3c2nc2n3CCCCC2)CC1)N1CCN(c2ncccn2)CC1`: the IC50 entry is “inactive”.

As for `Cc1cccc(NC(=O)C2CCCN(c3ncnc4c3nc3n4CCCC3)C2)c1` (stereo not given), the IC50 entry is “inactive”.

In the case of `Cc1ccc(NC(=O)C2CCN(c3ncnc4c3nc3n4CCCC3)CC2)cc1F`, the IC50 result was “inactive”.

For `Cc1ccc(C)c(N2CCN(CCCNC(=O)C3CCCN(c4ncnc5c4nc4n5CCCCC4)C3)CC2)c1` (stereo not given), the IC50 was 9.51 µM.

`Cc1cccc(N2CCN(CCCNC(=O)C3CCCN(c4ncnc5c4nc4n5CCCCC4)C3)CC2C)c1` (stereo not given): the IC50 is 19.1 µM.

Regarding `O=C(NCC1CCN(Cc2cccc(Cl)c2)CC1)C1CCCN(c2ncnc3c2nc2n3CCCC2)C1` (stereo not given), the IC50 was 0.962 µM.

In the case of `O=C(C1CCN(c2ncnc3c2nc2n3CCCCC2)CC1)N1CCN(c2ccccc2)CC1`, the IC50 entry was “inactive”.

With `O=C(NCc1cccc(Cl)c1)C1CCCN(c2ncnc3c2nc2n3CCCC2)C1` (stereo not given), the IC50 is > 100 µM (inactive).

In the case of `Cc1ccc(C)c(CN2CCC(CNC(=O)C3CCCN(c4ncnc5c4nc4n5CCCCC4)C3)CC2)c1` (stereo not given), the IC50 is 2.69 µM.

For the compound `O=C(Nc1cccc(Cl)c1)C1CCN(c2ncnc3c2nc2n3CCCCC2)CC1`, the IC50 was 5.75 µM.

As for `Cc1cc(C)cc(NC(=O)C2CCN(c3ncnc4c3nc3n4CCCCC3)CC2)c1`, the IC50 is > 100 µM (inactive).

With `O=C(NCC1CCN(Cc2ccc(F)cc2)CC1)C1CCCN(c2ncnc3c2nc2n3CCCCC2)C1` (stereo not given), the IC50 was 2.87 µM.

With `O=C(Nc1ccc(CN2CCCCC2)cc1)C1CCN(c2ncnc3c2nc2n3CCCCC2)CC1`, the IC50 result was “inactive”.

In the case of `COc1cc(Cl)c(C)cc1NC(=O)C1CCN(c2ncnc3c2nc2n3CCCCC2)CC1`, the IC50 is > 100 µM (inactive).

Consider `O=C(NCC1CCN(Cc2ccc(Cl)c(Cl)c2)CC1)C1CCCN(c2ncnc3c2nc2n3CCCC2)C1` (stereo not given), for which the IC50 was 5.74 µM.

`Cc1ccc(NC(=O)C2CCN(c3ncnc4c3nc3n4CCCC3)CC2)cc1Br`: the IC50 result is “inactive”.

For the compound `O=C(NCC1CCN(Cc2ccc(Cl)cc2)CC1)C1CCCN(c2ncnc3c2nc2n3CCCC2)C1` (stereo not given), the IC50 was 6.79 µM.

Take `CC1CCCCN1C(=O)C1CCN(c2ncnc3c2nc2n3CCCCC2)CC1` (stereo not given): the IC50 was > 100 µM (inactive).

Regarding `O=C(NCCCN1CCCCC1)C1CCN(c2ncnc3c2nc2n3CCCCC2)CC1`, the IC50 was 3.42 µM.

For `Cc1cccc(NC(=O)C2CCN(c3ncnc4c3nc3n4CCCCC3)CC2)c1C`, the IC50 result is “inactive”.

On to `CC1CCCC(C)N1CCCNC(=O)C1CCCN(c2ncnc3c2nc2n3CCCCC2)C1` (stereo not given), for which the IC50 was 8.74 µM.

Turning to `COc1cc(OC)c(NC(=O)C2CCN(c3ncnc4c3nc3n4CCCCC3)CC2)cc1Cl`, the IC50 entry was “inactive”.

As to `Cc1cc(C)cc(NC(=O)C2CCCN(c3ncnc4c3nc3n4CCCC3)C2)c1` (stereo not given), the IC50 result is “inactive”.

In the case of `O=C(NCC1CCN(Cc2cccc(Cl)c2)CC1)[C@H]1CCCN(c2ncnc3c2nc2n3CCCC2)C1`, the IC50 was 2.66 µM.

Take `O=C(NCC1CCN(Cc2ccccc2F)CC1)C1CCCN(c2ncnc3c2nc2n3CCCCC2)C1` (stereo not given): the IC50 is 8.42 µM.

Turning to `COc1ccc(NC(=O)C2CCN(c3ncnc4c3nc3n4CCCCC3)CC2)cc1Cl`, the IC50 result is “inactive”.

Take `O=C(NCC1CCN(Cc2ccccc2Cl)CC1)C1CCCN(c2ncnc3c2nc2n3CCCC2)C1` (stereo not given): the IC50 is 1.04 µM.

As to `O=C(C1CCN(c2ncnc3c2nc2n3CCCCC2)CC1)N1CCN(c2ccccn2)CC1`, the IC50 entry was “inactive”.

On to `Cc1ccc(NC(=O)C2CCCN(c3ncnc4c3nc3n4CCCC3)C2)cc1F` (stereo not given), for which the IC50 entry was “inactive”.

With `Cc1ccc(NC(=O)C2CCN(c3ncnc4c3nc3n4CCCCC3)CC2)cc1Cl`, the IC50 is 3.95 µM.

Turning to `O=C(NCCCN1CCN(c2ccccc2)CC1)C1CCCN(c2ncnc3c2nc2n3CCCCC2)C1` (stereo not given), the IC50 was 3.06 µM.

On to `CCC1CCCCN1CCCNC(=O)C1CCN(c2ncnc3c2nc2n3CCCCC2)CC1` (stereo not given), for which the IC50 is 5.66 µM.

On to `CCCN1CCN(C(=O)C2CCN(c3ncnc4c3nc3n4CCCCC3)CC2)CC1`, for which the IC50 is 3.05 µM.

With `O=C(NCC1CCN(Cc2ccc(Cl)cc2)CC1)C1CCCN(c2ncnc3c2nc2n3CCCCC2)C1` (stereo not given), the IC50 was 2.75 µM.

Turning to `COc1ccc(Cl)cc1NC(=O)C1CCN(c2ncnc3c2nc2n3CCCCC2)CC1`, the IC50 entry was “inactive”.

On to `O=C(NCc1cccc(Cl)c1)C1CCCN(c2ncnc3c2nc2n3CCCCC2)C1` (stereo not given), for which the IC50 entry is “inactive”.

Consider `Cc1ccc(NC(=O)C2CCN(c3ncnc4c3nc3n4CCCCC3)CC2)cc1F`, for which the IC50 entry is “inactive”.

As to `Cc1cccc(NC(=O)C2CCCN(c3ncnc4c3nc3n4CCCCC3)C2)c1` (stereo not given), the IC50 is > 100 µM (inactive).
